The source made the active and inactive calls. The rule behind the calls is not given here.
How the values were obtained:
Sperm [1] = assay: Inhibition of human sperm motility assessed as decrease in straight line velocity by CASA; assay type: functional
Sperm [2] = assay: Inhibition of human sperm motility at 5 ug/ml after 15 mins by CASA; assay type: functional
Sperm [3] = assay: Inhibition of human sperm motility assessed as decrease in curvilenear velocity by CASA; assay type: functional, cell-based
Sperm [4] = assay: Inhibition of human sperm motility assessed as decrease in average path velocity by CASA; assay type: functional
HeLa = assay: Cytotoxicity against human HeLa cells at above 16 ug/ml after 24 hrs by MTT assay; assay type: cell-based
[5] = Inhibition of human sperm motility by Sander-Cramer modified assay; assay type: functional
[6] = Inhibition of human sperm motility at 20 ug/ml after 5 mins by CASA; assay type: functional; parameters: scale not given: the % may be the effect or the level left
Sperm [7] = assay: Inhibition of human sperm motility upto 15 mins by CASA; assay type: functional, cell-based

Molecule | Activity (Sperm [1]) | Activity (Sperm [3]) | Activity (Sperm [4]) | Activity (HeLa) | EC100 [5] | also measured
CC(C)C[C@H](NC[C@@H](NC(=O)[C@H](C)NC(=O)[C@H](CC(N)=O)NC(=O)[C@H](CC(C)C)NC(=O)[C@H](C)NC(=O)[C@H](C)NC(=O)[C@H](CCCCN)NC(=O)[C@H](C)NC(=O)[C@H](C)NC(=O)[C@H](C)NC(=O)[C@H](CCCCN)NC(=O)[C@H](CC(C)C)NC(=O)[C@@H](NC(=O)[C@H](CCCCN)NC(=O)[C@H](CCCCN)NC(=O)[C@H](CC(C)C)NC(=O)[C@H](CC(C)C)NC(=O)[C@@H](NC(=O)[C@H](CCCCN)NC(=O)[C@H](Cc1c[nH]c2ccccc12)NC(=O)[C@H](CC(C)C)NC(=O)[C@H](C)N)[C@@H](C)O)C(C)C)C(C)C)C(=O)N[C@H](C(=O)NCC(=O)N[C@@H](C)C(=O)N[C@@H](CC(N)=O)C(=O)N[C@@H](C)C(=O)O)C(C)C | Dose-dependent effect | Dose-dependent effect | Dose-dependent effect | – | – | Activity (Sperm [2]): Active
CSCC[C@H](NC(=O)[C@H](Cc1c[nH]c2ccccc12)NC(=O)[C@H](CC(C)C)NC(=O)[C@H](C)N)C(=O)N[C@H](C(=O)N[C@@H](CC(C)C)C(=O)N[C@@H](CC(C)C)C(=O)N[C@@H](CCCCN)C(=O)N[C@@H](CCCCN)C(=O)N[C@H](C(=O)N[C@@H](CC(C)C)C(=O)N[C@@H](CCCCN)C(=O)N[C@@H](C)C(=O)N[C@@H](C)C(=O)N[C@@H](C)C(=O)N[C@@H](CCCCN)C(=O)N[C@@H](C)C(=O)N[C@@H](C)C(=O)N[C@@H](CC(C)C)C(=O)N[C@@H](CC(N)=O)C(=O)N[C@@H](C)C(=O)N[C@H](CN[C@@H](CC(C)C)C(=O)N[C@H](C(=O)NCC(=O)N[C@@H](C)C(=O)N[C@@H](CC(N)=O)C(=O)N[C@@H](C)C(N)=O)C(C)C)C(C)C)C(C)C)[C@@H](C)O | Dose-dependent effect | Dose-dependent effect | Dose-dependent effect | – | – | –
H-ALWKTLLKKVLKAAAK-NH2 | Dose-dependent effect | Dose-dependent effect | Dose-dependent effect | Toxic | 25 µg/mL | –
H-ALWKTLLKKVLKAAAKAALNAVLVGANA-OH [listing 1 of 2 here] | – | – | – | Toxic | – | –
H-ALWKTLLKKVLKAAAKAALNAVLVGANA-OH [listing 2 of 2 here] | – | – | – | – | – | Activity [6]: 100%
H-ALWMTLLKKVLKAAAKAALNAVLVGANA-NH2 [listing 1 of 2 here] | – | – | – | Toxic | – | –
H-ALWMTLLKKVLKAAAKAALNAVLVGANA-NH2 [listing 2 of 2 here] | – | – | – | – | 25 µg/mL | –
H-ALWMTLLKKVLKAAAKAALNAVLVGANA-OH | – | – | – | – | 25 µg/mL | –
H-LLKKVLKAAAKAALNAVLVGANA-OH | Dose-dependent effect | Dose-dependent effect | Dose-dependent effect | – | 25 µg/mL | Activity (Sperm [7]): inactive
